Reference: PubChem BioAssay (NCI)
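96-well plates; 48 h exposure; 5 concentrations. Endpoints by linear interpolation between flanking doses. Not reached: highest tested concentration assigned. Definition used: TGI = concentration required for complete inhibition of growth.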

Legend:
Assay in all cases: NCI-60 cell line screen, 48 h
OVCAR-5 ovarian = tested on: OVCAR-5 ovarian
SK-OV-3 ovarian = tested on: SK-OV-3 ovarian
IGROV1 ovarian = tested on: IGROV1 ovarian
HL-60(TB) leukemia = tested on: HL-60(TB) leukemia
HOP-62 NSCLC = tested on: HOP-62 NSCLC
SN12C renal = tested on: SN12C renal
MOLT-4 leukemia = tested on: MOLT-4 leukemia
OVCAR-8 ovarian = tested on: OVCAR-8 ovarian
COLO 205 colon = tested on: COLO 205 colon
SF-295 CNS = tested on: SF-295 CNS
RXF 393 renal = tested on: RXF 393 renal
HCC-2998 colon = tested on: HCC-2998 colon
SK-MEL-5 melanoma = tested on: SK-MEL-5 melanoma
CCRF-CEM leukemia = tested on: CCRF-CEM leukemia
HS 578T breast = tested on: HS 578T breast
ACHN renal = tested on: ACHN renal
CAKI-1 renal = tested on: CAKI-1 renal
UACC-257 melanoma = tested on: UACC-257 melanoma
SW-620 colon = tested on: SW-620 colon
K-562 leukemia = tested on: K-562 leukemia
TK-10 renal = tested on: TK-10 renal
MDA-MB-231 breast = tested on: MDA-MB-231 breast
SF-268 CNS = tested on: SF-268 CNS
RPMI-8226 leukemia = tested on: RPMI-8226 leukemia
OVCAR-3 ovarian = tested on: OVCAR-3 ovarian
LOX IMVI melanoma = tested on: LOX IMVI melanoma
UO-31 renal = tested on: UO-31 renal
DU-145 prostate = tested on: DU-145 prostate
M14 melanoma = tested on: M14 melanoma
786-0 renal = tested on: 786-0 renal
SNB-75 CNS = tested on: SNB-75 CNS
MDA-MB-435 = tested on: MDA-MB-435
NCI-H23 lung = tested on: NCI-H23 lung
SK-MEL-2 melanoma = tested on: SK-MEL-2 melanoma
A549 NSCLC = tested on: A549 NSCLC
OVCAR-4 ovarian = tested on: OVCAR-4 ovarian
NCI-H226 lung = tested on: NCI-H226 lung
A498 renal = tested on: A498 renal
HT29 colon = tested on: HT29 colon
PC-3 prostate = tested on: PC-3 prostate
NCI-H460 lung = tested on: NCI-H460 lung
HCT-116 colon = tested on: HCT-116 colon
HOP-92 NSCLC = tested on: HOP-92 NSCLC
NCI/ADR-RES ovarian = tested on: NCI/ADR-RES ovarian
MDA-N = tested on: MDA-N
SF-539 CNS = tested on: SF-539 CNS
U251 CNS = tested on: U251 CNS
MCF7 breast = tested on: MCF7 breast
EKVX NSCLC = tested on: EKVX NSCLC
SK-MEL-28 melanoma = tested on: SK-MEL-28 melanoma
SR leukemia = tested on: SR leukemia
SNB-19 CNS = tested on: SNB-19 CNS
T-47D breast = tested on: T-47D breast
HCT-15 colon = tested on: HCT-15 colon
MALME-3M melanoma = tested on: MALME-3M melanoma
NCI-H522 lung = tested on: NCI-H522 lung
UACC-62 melanoma = tested on: UACC-62 melanoma
BT-549 breast = tested on: BT-549 breast

`CCOC(=O)C(=CNc1ccc(S(N)(=O)=O)cc1)C(=O)OCC` was tested, and the TGI (OVCAR-5 ovarian) was greater than 100 µM, the TGI (SK-OV-3 ovarian) was greater than 100 µM and the TGI (IGROV1 ovarian) was greater than 100 µM. The TGI (HL-60(TB) leukemia) was greater than 100 µM, the TGI (HOP-62 NSCLC) was greater than 100 µM and the TGI (SN12C renal) was greater than 100 µM. The TGI (MOLT-4 leukemia) was greater than 100 µM, the TGI (OVCAR-8 ovarian) was greater than 100 µM and the TGI (COLO 205 colon) was greater than 100 µM. The TGI (SF-295 CNS) was greater than 100 µM, the TGI (RXF 393 renal) was greater than 100 µM and the TGI (HCC-2998 colon) was greater than 100 µM. For the same compound, the TGI (SK-MEL-5 melanoma) was greater than 100 µM, the TGI (CCRF-CEM leukemia) was greater than 100 µM and the TGI (HS 578T breast) was greater than 100 µM. It also gave a TGI (ACHN renal) greater than 100 µM, a TGI (CAKI-1 renal) greater than 100 µM and a TGI (UACC-257 melanoma) greater than 100 µM. For the same compound, the TGI (SW-620 colon) was greater than 100 µM, the TGI (K-562 leukemia) was greater than 100 µM and the TGI (TK-10 renal) was greater than 100 µM. It also gave a TGI (MDA-MB-231 breast) greater than 100 µM, a TGI (SF-268 CNS) greater than 100 µM and a TGI (RPMI-8226 leukemia) greater than 100 µM. The TGI (OVCAR-3 ovarian) was greater than 100 µM, the TGI (LOX IMVI melanoma) was greater than 100 µM and the TGI (UO-31 renal) was greater than 100 µM. It also gave a TGI (DU-145 prostate) greater than 100 µM, a TGI (M14 melanoma) greater than 100 µM and a TGI (786-0 renal) greater than 100 µM. For the same compound, the TGI (SNB-75 CNS) was greater than 100 µM, the TGI (MDA-MB-435) was greater than 100 µM and the TGI (NCI-H23 lung) was greater than 100 µM. The TGI (SK-MEL-2 melanoma) was greater than 100 µM, the TGI (A549 NSCLC) was greater than 100 µM and the TGI (OVCAR-4 ovarian) was greater than 100 µM. For the same compound, the TGI (NCI-H226 lung) was greater than 100 µM, the TGI (A498 renal) was greater than 100 µM and the TGI (HT29 colon) was greater than 100 µM. For the same compound, the TGI (PC-3 prostate) was greater than 100 µM, the TGI (NCI-H460 lung) was greater than 100 µM and the TGI (HCT-116 colon) was greater than 100 µM. For the same compound, the TGI (HOP-92 NSCLC) was greater than 100 µM, the TGI (NCI/ADR-RES ovarian) was greater than 100 µM and the TGI (MDA-N) was greater than 100 µM. For the same compound, the TGI (SF-539 CNS) was greater than 100 µM, the TGI (U251 CNS) was greater than 100 µM and the TGI (MCF7 breast) was greater than 100 µM. It also gave a TGI (EKVX NSCLC) greater than 100 µM, a TGI (SK-MEL-28 melanoma) greater than 100 µM and a TGI (SR leukemia) greater than 100 µM. For the same compound, the TGI (SNB-19 CNS) was greater than 100 µM, the TGI (T-47D breast) was greater than 100 µM and the TGI (HCT-15 colon) was greater than 100 µM. For the same compound, the TGI (MALME-3M melanoma) was greater than 100 µM and the TGI (NCI-H522 lung) was greater than 100 µM.

For `CC[C@@]1(O)C(=O)OCc2c1cc1n(c2=O)Cc2c-1nc1ccccc1c2/C=N\NC(=O)C(N)Cc1ccc(O)cc1` (some centres not stated), the TGI (SK-OV-3 ovarian) was 9.77 µM, the TGI (HL-60(TB) leukemia) was 4.69 µM and the TGI (SN12C renal) was 7.75 µM. The TGI (MOLT-4 leukemia) was 1.59 µM, the TGI (COLO 205 colon) was greater than 31.6 µM and the TGI (SF-295 CNS) was 3.16 µM. It also gave a TGI (RXF 393 renal) of 4.38 µM, a TGI (SK-MEL-5 melanoma) of 2.7 µM and a TGI (CCRF-CEM leukemia) of 1.15 µM. It also gave a TGI (ACHN renal) of 2.75 µM, a TGI (UACC-62 melanoma) of 1.71 µM and a TGI (UACC-257 melanoma) of 18.9 µM. The TGI (K-562 leukemia) was greater than 100 µM, the TGI (TK-10 renal) was greater than 31.6 µM and the TGI (MDA-MB-231 breast) was greater than 31.6 µM. For the same compound, the TGI (RPMI-8226 leukemia) was 5.62 µM, the TGI (LOX IMVI melanoma) was 2.77 µM and the TGI (UO-31 renal) was 8.76 µM. For the same compound, the TGI (786-0 renal) was 6.55 µM, the TGI (BT-549 breast) was greater than 31.6 µM and the TGI (NCI-H23 lung) was 1.82 µM. The TGI (OVCAR-4 ovarian) was greater than 31.6 µM, the TGI (NCI-H226 lung) was 2.64 µM and the TGI (A498 renal) was 3.65 µM. For the same compound, the TGI (NCI-H460 lung) was 10.8 µM, the TGI (HCT-116 colon) was 4.44 µM and the TGI (HOP-92 NSCLC) was 5.64 µM. It also gave a TGI (MDA-N) greater than 31.6 µM, a TGI (SF-539 CNS) of 0.217 µM and a TGI (U251 CNS) of 5.04 µM. It also gave a TGI (SR leukemia) of 0.396 µM, a TGI (SNB-19 CNS) greater than 31.6 µM and a TGI (T-47D breast) greater than 25.7 µM. It also gave a TGI (HCT-15 colon) greater than 31.6 µM, a TGI (MALME-3M melanoma) of 7.8 µM and a TGI (NCI-H522 lung) of 5.21 µM.
